Series [1] deals with HT1080 cells. Nature of the series: BrdU incorporation (DNA synthesis) in quiescent HT1080 cells. Format: cell-based, human. Conditions: EGF 100 ng/ml, 18 h; for Inhibition of EGF-induced BrdU incorporation (DNA synthesis): Casodex 10 μM, S1 and Ss peptides 1 nM, BrdU by IF, % of total nuclei. As to the method:
Human fibrosarcoma HT1080 cells were used. In A, quiescent cells on coverslips were left un-stimulated or stimulated for 18 h with the indicated compounds. […] After in vivo pulse with BrdU (100 μM; Sigma), BrdU incorporation was analyzed by IF and expressed as % of total nuclei. Several independent experiments were performed in duplicate and the results were derived from at least 400 scored cells for each coverslip. Mean and SEM are shown. n represents the number of experiments. […] In B, xenografts were established in nude male mice as described in Methods. On alternate days, animals were intra-peritoneally injected with vehicle alone (vehicle), or the pure androgen antagonist Casodex (Cx: 0.1 μg/mice; 4µg/Kg body weight), or DHT (DHT: 0,1 μg/mice; 3 μg/Kg body weight) alone. Volumes of HT1080 cell xenografts were measured at the indicated times in two dimensions by a caliper and expressed as tumor mass (mm^3). Mean and SEM are shown. n represents the number of experiments.
(§1) Quiescent HT1080 cells were used. […] Casodex (at 10 μM) was used for comparison with the S1 peptide. Upper section in A, Western blot of HT1080 cell lysates with anti-EGFR antibody. […] In B, lysates were immune-precipitated with the anti-Src MAb and Src activity in immune complexes was assayed using acidified enolase, as a substrate. In C, cells on coverslips were left untreated or treated for 18 h with the indicated compounds. After in vivo pulse with BrdU (100 μM), BrdU incorporation was analyzed by IF and expressed as % of total nuclei. Several independent experiments were performed in duplicate and the results were obtained from at least 500 scored cells for each coverslip. Mean and SEM are shown. n represents the number of experiments.

The target of another series is T1, Src tyrosine kinase (Homo sapiens, UniProt P12931).
T1 construct: lysates were immune-precipitated with the anti-Src MAb and Src activity in immune complexes was assayed using acidified enolase; endogenous in cells; host or cells: HT1080 human fibrosarcoma cells
T1 sequence (P12931 whole entry): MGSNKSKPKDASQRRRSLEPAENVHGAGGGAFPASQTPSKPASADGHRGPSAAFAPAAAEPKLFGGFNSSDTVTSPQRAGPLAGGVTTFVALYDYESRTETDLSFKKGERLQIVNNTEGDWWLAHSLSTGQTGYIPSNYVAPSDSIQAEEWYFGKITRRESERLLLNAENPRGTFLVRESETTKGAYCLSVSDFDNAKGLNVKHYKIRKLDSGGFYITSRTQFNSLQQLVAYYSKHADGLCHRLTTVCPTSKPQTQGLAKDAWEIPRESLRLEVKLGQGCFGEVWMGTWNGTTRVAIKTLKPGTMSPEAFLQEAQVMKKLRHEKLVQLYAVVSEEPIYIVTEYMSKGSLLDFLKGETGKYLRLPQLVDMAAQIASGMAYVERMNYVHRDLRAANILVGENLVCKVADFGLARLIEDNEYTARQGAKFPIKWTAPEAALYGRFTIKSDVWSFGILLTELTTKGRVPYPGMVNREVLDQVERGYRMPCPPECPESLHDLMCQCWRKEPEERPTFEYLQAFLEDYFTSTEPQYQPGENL
The series is described as follows: Src kinase activity in immune complexes from HT1080 cells (enolase substrate). The format is cell-based. Conditions: quiescent HT1080 cells, EGF 100 ng/ml 10 min; S1 and Ss peptides 1 nM; Casodex 10 μM. The method, then:
as §1
Lysates (at 2 mg/ml protein concentration) were prepared as described. […] The Src tyrosine kinase activity in immunocomplexes was assayed using enolase (Sigma) as a substrate.

The next series deals with MMP-9. The series is described as follows: Protease activity of MMP-9 released from HT1080 cells. Format: cell-based, human. Conditions: quiescent HT1080 cells; for Inhibition of EGF-stimulated MMP-9 secretion (protease activity): EGF 100 ng/ml 5 min, Casodex 10 μM, S1 and Ss peptides 10 nM added 30 min before EGF.
Series [2] deals with HT1080 cells. The series is described as follows: Trans-well migration/invasiveness of HT1080 cells. The settings on record: quiescent HT1080 cells, collagen-coated Trans-well, 6 h, EGF 100 ng/ml; Casodex 10 μM; S1 and Ss peptides 10 nM. The format is cell-based, human.
For series [3], the system named is LNCaP cells. Nature of the series: BrdU incorporation in LNCaP cells. The format is cell-based, human. Conditions: quiescent LNCaP cells, EGF 100 ng/ml, 18 h; for Inhibition of EGF-induced BrdU incorporation: Casodex 10 μM, S1 and Ss peptides 10 nM. The method, then:
Quiescent human prostate cancer-derived LNCaP cells were used. In A, quiescent cells on coverslips were left unstimulated or stimulated for 18 h with the indicated compounds. […] After in vivo pulse with BrdU (100 μM), BrdU incorporation was analyzed by IF and expressed as % of total cells. Several independent experiments were performed in duplicate and the results were derived from at least 600 scored cells for each coverslip. Mean and SEM are shown. n represents the number of experiments. In B, the cells were left untreated or treated for 6 h with the indicated compounds. […] Cells were allowed to migrate in collagen pre-coated Trans-well filters. Migrated cells were stained and counted as reported in Methods. Results were derived from several independent experiments, each performed in duplicate. Data are expressed as relative increase. Mean and SEM are shown. n represents the number of experiments. Quiescent human breast cancer-derived MCF-7 cells were used. In C, quiescent cells on coverslips were left un-stimulated or stimulated for 18 h with the indicated compounds. […] After in vivo pulse with BrdU (100 μM), BrdU incorporation was analyzed by IF and expressed as % of total cells. Several independent experiments were performed in duplicate and the results were derived from at least 500 scored cells for each coverslip. Mean and SEM are shown. n represents the number of experiments. In D, the cells were left untreated or treated for 6 h with the indicated compounds. […] Cells were allowed to migrate in collagen-pre-coated Trans-well filters. Migrated cells were stained and counted as reported in Methods. Results were derived from several independent experiments, each performed in duplicate. Data are expressed as relative increase. Mean and SEM are shown. n represents the number of experiments.

Series [4] concerns LNCaP cells. Nature of the series: Trans-well migration of LNCaP cells. Format: cell-based, human. The settings on record: quiescent LNCaP cells, 6 h, EGF 100 ng/ml; for Inhibition of EGF-induced motility (transmigration): Casodex 10 μM, S1 and Ss peptides 1 nM.
The test system of another series is MCF-7 cells. Nature of the series: Trans-well migration of MCF-7 cells. Conditions: quiescent MCF-7 cells, 6 h, EGF 100 ng/ml; for Inhibition of EGF-induced motility (transmigration): Casodex 10 μM, S1 and Ss peptides 10 nM. Format: cell-based, human.
Series [5] concerns HCT116 cells. The series is described as follows: BrdU incorporation in HCT116 cells. Format: cell-based, human. Conditions: quiescent HCT116 cells, EGF 100 ng/ml, 18 h; for Inhibition of EGF-induced BrdU incorporation: Casodex 10 μM, S1 and Ss peptides 10 nM. As to the method:
Quiescent human colon cancer-derived HCT116 cells were used. In A, cells on coverslips were left un-stimulated or stimulated for 18 h with the indicated compounds. […] After in vivo pulse with BrdU (100 μM), BrdU incorporation was analyzed by IF and expressed as % of total cells. Several independent experiments were performed in duplicate and the results were derived from at least 400 scored cells for each coverslip. Mean and SEM are shown. n represents the number of experiments. In B, the cells were left untreated or treated for 6 h with the indicated compounds. […] Cells were allowed to migrate in collagen-pre-coated Trans-well filters. Migrated cells were stained and counted as reported in Methods. Results were derived from several independent experiments, each performed in duplicate. Data are expressed as relative increase. Mean and SEM are shown. n represents the number of experiments. Quiescent human pancreatic cancer-derived KP-2 cells were used. In C, cells on coverslips were left unstimulated or stimulated for 18 h with the indicated compounds. […] After in vivo pulse with BrdU (100 μM), BrdU incorporation was analyzed by IF and expressed as % of total cells. Several independent experiments were performed in duplicate and the results were derived from at least 400 scored cells for each coverslip. Mean and SEM are shown. n represents the number of experiments. In D, the cells were left untreated or treated for 6 h with the indicated compounds. […] Cells were allowed to migrate in collagen-pre-coated Trans-well filters. Migrated cells were stained and counted as reported in Methods. Results were derived from several independent experiments, each performed in duplicate. Data are expressed as relative increase. Mean and SEM are shown. n represents the number of experiments. […] After in vivo labeling with 100 μM BrdU (Sigma), DNA synthesis was analyzed by immunofluorescence, using diluted (1:50 in PBS) mouse monoclonal anti-BrdU antibody (clone BU-1, from GE Healthcare).

The subject of series [6] is HCT116 cells. Nature of the series: Trans-well migration of HCT116 cells. The settings on record: quiescent HCT116 cells, 6 h, EGF 100 ng/ml; for Inhibition of EGF-induced motility (Trans-well): Casodex 10 μM, S1 and Ss peptides 10 nM. Format: cell-based, human.
The next series relates to KP-2 cells. Nature of the series: Trans-well migration of KP-2 cells. The format is cell-based, human. Conditions: quiescent KP-2 cells, 6 h, EGF 100 ng/ml; for Inhibition of EGF-induced motility (transmigration): Casodex 10 μM, S1 and Ss peptides 10 nM.

With `CC(O)(CS(=O)(=O)c1ccc(F)cc1)C(=O)Nc1ccc(C#N)c(C(F)(F)F)c1` (stereo not drawn) [Casodex], the “Inhibition of EGF-induced BrdU incorporation (DNA synthesis)” value (“Inhibition … (DNA synthesis)” for short) in the series with HT1080 cells [1] is on record as “inhibits the EGF-induced BrdU incorporation”. Further, the “Inhibition of EGF-triggered Src activity stimulation” value on Src tyrosine kinase is recorded as “This inhibition is comparable to that observed by treatment of cells with 10 μM Casodex”. The “Inhibition of EGF-stimulated MMP-9 secretion (protease activity)” value (“Inhibition … (protease activity)” for short) with MMP-9 is given as “inhibits this response”. Further, the “Inhibition of EGF-induced invasiveness (trans-migration)” value (“Inhibition of EGF-induced invasiveness” for short) in the series on HT1080 cells [2] is on record as “inhibited to a similar extent”. Moreover, the “Inhibition of EGF-induced BrdU incorporation” value with LNCaP cells [3] is reported as “inhibits EGF-induced BrdU incorporation”; in the series with HCT116 cells [5] it was “similarly inhibit these EGF-elicited responses”. Also, the “Inhibition of EGF-induced motility (transmigration)” value (shortened to “Inhibition … (transmigration)”) with LNCaP cells [4] is “inhibited to a similar extent”; with MCF-7 cells, “inhibited to a similar extent”; with KP-2 cells, “inhibit both DNA synthesis and motility”. The “Inhibition of EGF-induced motility (Trans-well)” value (shortened to “Inhibition … (Trans-well)”) with HCT116 cells [6] is on record as “similarly inhibit these EGF-elicited responses”.
Consider Ac-HPKPARIPHP-NH2 [Ss peptide], for which the “Inhibition … (DNA synthesis)” value with HT1080 cells [1] is recorded as “only slightly affects”. Also, the “Inhibition of EGF-triggered Src activity stimulation” value on Src tyrosine kinase was “only slightly affects”. For the same compound, in the series on MMP-9, the “Inhibition … (protease activity)” value is recorded as “negligible inhibitory effect”. Besides, the “Inhibition of EGF-induced invasiveness” value in the series with HT1080 cells [2] is “not by Ss peptide”. The “Inhibition of EGF-induced BrdU incorporation” value is given as “only slightly affects DNA synthesis” in the series on LNCaP cells [3] and “does not interfere with the EGF-elicited responses” in the series on HCT116 cells [5]. For the same compound, the “Inhibition … (Trans-well)” value in the series on HCT116 cells [6] is “does not interfere with the EGF-elicited responses”. Further, the “Inhibition … (transmigration)” value in the series with KP-2 cells is “does not interfere with the EGF-elicited responses”.
Consider Ac-PPPHPHARIK-NH2 [S1 peptide], for which the “Inhibition … (DNA synthesis)” value in the series on HT1080 cells [1] is on record as “abolishes the mitogenic response elicited by EGF”. For the same compound, at Src tyrosine kinase, the “Inhibition of EGF-triggered Src activity stimulation” value is “completely abolishes”. Besides, in the series with MMP-9, the “Inhibition … (protease activity)” value is listed as “inhibits the EGF effect on MMP-9 secretion”. Also, in the series with HT1080 cells [2], the “Inhibition of EGF-induced invasiveness” value is on record as “inhibited to a similar extent”. In addition, the “Inhibition of EGF-induced BrdU incorporation” value with LNCaP cells [3] is recorded as “abolishes the mitogenic response elicited by EGF”; in the series on HCT116 cells [5] it was “similarly inhibit these EGF-elicited responses”. Besides, the “Inhibition … (transmigration)” value in the series on LNCaP cells [4] was “inhibited to a similar extent”; with MCF-7 cells, “inhibited to a similar extent”; in the series with KP-2 cells, “inhibit both DNA synthesis and motility”. Further, the “Inhibition … (Trans-well)” value in the series with HCT116 cells [6] was “similarly inhibit these EGF-elicited responses”.
For “EGF: epidermal growth factor (Roche), used as stimulus at 100 ng/ml”, the “BrdU incorporation (DNA synthesis) upon stimulation with the compound alone” value with HT1080 cells [1] (R1881 and DHT 10 nM) was “significantly incorporate BrdU”. In addition, the “Increase of protease activity of MMP-9 released” value in the series with MMP-9 (EGF 100 ng/ml, 5 min) is “about 2 fold”. For the same compound, the “BrdU incorporation upon stimulation” value in the series with LNCaP cells [3] was “robustly incorporate BrdU”; in the series with HCT116 cells [5], “robustly increases BrdU incorporation”. The “Motility in transmigration assay upon stimulation” value in the series on LNCaP cells [4] and in the series on MCF-7 cells was “significantly increases the motility” each time. The Motility upon stimulation entry in the series on HCT116 cells [6] is recorded as “robustly increases”; in the series with KP-2 cells, “significantly increases”.

The values above are taken from article PMC3793924, “Targeting Androgen Receptor/Src Complex Impairs the Aggressive Phenotype of Human Fibrosarcoma Cells” (PLoS ONE, 2013).
